Patent EP4592286A1, “MACROCYCLIC NITROGEN-CONTAINING CROWN ETHER COMPOUND AND USE THEREOF AS PROTEIN KINASE INHIBITOR” (Artivila Biopharma, priority 2022, dated 2024)
≈ marks a conversion by molar mass, not a printed value.

Tests used:
EGFR (T790M) = EGFR (T790M) (Homo sapiens, UniProt P00533, T790M); assay: experiment of inhibiting kinase activity, EGFR (T790M); format: biochemical; settings: at 10 nM; read-out: inhibition rate EGFR(T790M)
Method: (§1) The inhibition rates of tested compounds on JAK1, JAK2, JAK3, TYK2, CDK7, CDK9, EGFR (T790M) and LRRK2 kinases were measured. The test concentrations of the compounds were 10 nM and 100 nM, and the detection was performed by replicate wells. Alternatively, compounds were 3-fold serial diluted from 10 µM for 10 concentrations in replicate wells.

[1] = target: Wild-type EGFR kinase protein (Homo sapiens, UniProt P00533); assay: experiment of inhibiting EGFR kinase activity (TR-FRET method); format: biochemical
Method: The inhibitory effect of the compounds on EGFR kinase activity was measured by TR-FRET method. The diluted solutions of the compounds were transfered to a 384-well plate (784075, Greiner), the plate was sealed and centrifuged at a speed of 1000 g for 1 minute. Wild-type EGFR kinase protein at 2-fold final concentration was prepared in 1×kinase buffer, 5 µL of wild-type EGFR at 2-fold final concentration was added to 384-well plate, the well plate was centrifuged at 1000 g for 30 seconds, and left at room temperature for 10 minutes. A mixture of 2-fold TK-substrate-biotin (2 µM) and ATP was prepared in 1×kinase buffer, and 5 µL of the mixture of 2×TK-substrate-biotin (2 µM) and ATP was added to start the reaction. The well plate was centrifuged at 1000 g for 30 seconds, sealed and left at room temperature for 40 minutes. […] The fluorescence signal values at 615 nm (Cryptate) and 665 nm (XL665) were detected by using Envision 2104 microplate reader. […] The IC50 was calculated with GraphPad 8.0 and the dose-reponse curve of the compound was plotted as follows: y=Bottom+(Top-Bottom)/(1+10^((logic50-x)×hillslope)), where x was logarithm of inhibitor concentration; and y was % inhibition rate.

JAK3 [2] = target: T1, JAK3 (Homo sapiens, UniProt P52333); assay: experiment of inhibiting kinase activity (Caliper mobility shift assay), JAK3; format: biochemical; settings: for IC50: kinase activity assay, Table 3
T1 sequence (P52333 1-1124): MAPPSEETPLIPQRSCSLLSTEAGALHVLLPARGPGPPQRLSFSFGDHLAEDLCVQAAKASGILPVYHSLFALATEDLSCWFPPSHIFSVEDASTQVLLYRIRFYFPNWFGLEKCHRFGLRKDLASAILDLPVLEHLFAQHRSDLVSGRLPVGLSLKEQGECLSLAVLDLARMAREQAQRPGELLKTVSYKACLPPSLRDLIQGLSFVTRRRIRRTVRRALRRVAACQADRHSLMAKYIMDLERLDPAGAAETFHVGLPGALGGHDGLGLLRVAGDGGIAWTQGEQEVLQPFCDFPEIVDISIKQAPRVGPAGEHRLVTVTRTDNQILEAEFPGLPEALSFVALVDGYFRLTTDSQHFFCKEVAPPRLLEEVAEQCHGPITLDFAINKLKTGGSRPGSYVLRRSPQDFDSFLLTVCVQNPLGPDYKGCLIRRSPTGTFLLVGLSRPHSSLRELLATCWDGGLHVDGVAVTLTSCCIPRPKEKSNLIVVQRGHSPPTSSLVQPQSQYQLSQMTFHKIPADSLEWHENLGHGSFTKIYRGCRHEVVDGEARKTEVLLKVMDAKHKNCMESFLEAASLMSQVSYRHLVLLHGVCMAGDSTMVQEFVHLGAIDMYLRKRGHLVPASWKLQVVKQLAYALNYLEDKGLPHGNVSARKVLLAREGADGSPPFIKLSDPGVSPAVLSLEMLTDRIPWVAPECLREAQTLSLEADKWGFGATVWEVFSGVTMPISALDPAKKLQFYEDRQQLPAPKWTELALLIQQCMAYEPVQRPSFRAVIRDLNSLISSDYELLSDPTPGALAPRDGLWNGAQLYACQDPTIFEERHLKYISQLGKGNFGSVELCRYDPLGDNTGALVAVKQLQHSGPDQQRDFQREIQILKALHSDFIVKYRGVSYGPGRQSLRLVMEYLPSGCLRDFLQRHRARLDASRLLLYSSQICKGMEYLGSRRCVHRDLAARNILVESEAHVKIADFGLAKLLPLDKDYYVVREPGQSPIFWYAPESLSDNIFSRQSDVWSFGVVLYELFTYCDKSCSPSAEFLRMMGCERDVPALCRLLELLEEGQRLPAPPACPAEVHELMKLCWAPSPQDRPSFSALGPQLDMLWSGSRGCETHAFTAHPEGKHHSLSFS
Procedure, shortened: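 Read-out was Caliper mobility shift of substrate conversion, normalized to no-inhibitor and buffer-only wells, with IC50 from a variable-slope log(inhibitor) curve. Enzyme was exposed to compound (10-point 3-fold series from 10 µM, or single 10/100 nM) 10 min at room temperature before ATP/substrate addition.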

JAK2 = target: T2, JAK2 (Mus musculus, UniProt Q62120); assay: JAKs cell activity test: JAK2_pSTAT5 in IL-3-induced BAF3 cells; format: cell-based; settings: pSTAT5, IL-3-induced BAF3 cells
T2 construct: endogenous in cells; host or cells: BAF3
Method: (§2) THP1 cells were collected by centrifugation, resuspended with 1×HBSS, counted and diluted to a certain cell density. They were inoculated in a 384-well plate and cultured in a saturated humidity incubator with 37 °C and 5% CO2. The compound (DMSO final volume of 0.3%) was added to THP1 cells (10 doses in duplicates) and cultured in a saturated humidity incubator with 37 °C and 5% CO2. hIL-4 was added to stimulate cells and cultured in a saturated humidity incubator with 37 °C and 5% CO2. The lysis solution was added and incubated at room temperature. According to the instructions of AlphaLISA SureFire Ultra p-STAT6 detection kit, the lysis solution was transferred to pSTAT6 detection system, and the ALPHA signal was read by PE Envision microplate reader. The inhibition rate Inh%=((DMSO-sample)/(DMSO-background))×100 was calculated. IC50 was obtained by fitting with GraphPad Prism non-linear regression equation, and y=Bottom+(Top-Bottom)/(1+10^((LogIC50-x)×hillslope)), where x was the concentration of the compound and y was the inhibition rate.
(§3) JAK2_pSTAT5 was tesed in IL-3-induced BAF3 cells according to the above steps, and JAK3_pSTAT5 was tested in IL-2-induced CTLL-2 cells (without serum stimulation) according to the above steps.

TYK2 = TYK2 (Homo sapiens, UniProt P29597); assay: experiment of inhibiting kinase activity, TYK2; format: biochemical; settings: read-out: inhibition rate TYK2; for inhibition at 0.01 µM: at 10 nM; for inhibition at 0.1 µM: at 100 nM
Method: as §1

JAK3 [3] = target: T3, JAK3 (Mus musculus, UniProt Q62137); assay: JAKs cell activity test: JAK3_pSTAT5 in IL-2-induced CTLL-2 cells; format: cell-based; settings: pSTAT5, IL-2-induced CTLL-2 cells
T3 construct: endogenous in cells; host or cells: CTLL-2
T3 sequence (Q62137 1-1100): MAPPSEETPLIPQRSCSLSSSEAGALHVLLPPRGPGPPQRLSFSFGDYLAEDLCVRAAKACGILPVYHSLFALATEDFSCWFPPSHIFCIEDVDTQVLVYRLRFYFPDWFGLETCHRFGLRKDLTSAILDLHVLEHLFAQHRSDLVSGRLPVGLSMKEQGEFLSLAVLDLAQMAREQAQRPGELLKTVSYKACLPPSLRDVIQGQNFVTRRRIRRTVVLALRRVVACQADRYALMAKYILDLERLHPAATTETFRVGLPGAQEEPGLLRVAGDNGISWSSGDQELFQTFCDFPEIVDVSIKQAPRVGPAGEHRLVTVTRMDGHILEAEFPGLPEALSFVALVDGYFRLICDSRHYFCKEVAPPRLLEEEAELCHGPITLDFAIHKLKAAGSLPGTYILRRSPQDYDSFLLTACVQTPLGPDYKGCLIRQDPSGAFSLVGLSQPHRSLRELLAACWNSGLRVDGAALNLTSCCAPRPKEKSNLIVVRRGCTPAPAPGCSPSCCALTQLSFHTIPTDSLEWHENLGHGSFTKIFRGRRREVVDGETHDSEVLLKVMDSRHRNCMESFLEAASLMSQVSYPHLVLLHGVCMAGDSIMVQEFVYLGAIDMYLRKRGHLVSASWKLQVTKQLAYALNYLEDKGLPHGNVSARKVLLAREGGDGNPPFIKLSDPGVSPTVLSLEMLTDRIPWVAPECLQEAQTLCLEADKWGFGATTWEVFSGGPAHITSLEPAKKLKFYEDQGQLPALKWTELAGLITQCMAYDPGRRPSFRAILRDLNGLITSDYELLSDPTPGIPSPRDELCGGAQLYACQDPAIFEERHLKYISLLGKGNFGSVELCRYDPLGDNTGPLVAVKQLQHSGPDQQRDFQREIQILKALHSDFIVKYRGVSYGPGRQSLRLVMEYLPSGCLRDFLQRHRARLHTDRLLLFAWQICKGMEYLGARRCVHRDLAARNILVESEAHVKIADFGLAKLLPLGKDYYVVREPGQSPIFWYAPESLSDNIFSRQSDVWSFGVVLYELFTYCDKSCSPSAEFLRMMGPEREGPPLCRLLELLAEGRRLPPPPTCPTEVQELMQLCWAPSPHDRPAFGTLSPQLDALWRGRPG
Method: as §2, §3

[4] = measurement of the solubility of compounds in water and diluted hydrochloric acid; format: physicochemical; settings: thermodynamic from solid
Method: Example 117: measurement of the solubility of compounds in water and diluted hydrochloric acid
The compounds were dissolved in acetonitrile (LCMS pure) and prepared into standard samples having the concentration gradient of 1000 µg/mL, 500 µg/mL, 250 µg/mL, 125 µg/mL, 62.5 µg/mL, and 31.25 µg/mL.
(§4) About 1.0 mg of the powder of the compound to be tested was weighed and added to 0.3 mL of ultrapure water (pH-6), the resulting mixture was shaked thoroughly at room temperature overnight and centrifuged, and the supernatant was taken and diluted 10 times with acetonitrile. The sample was analyzed after mixing evenly.
as §4, with “153.8 µL of 6 M HCl was pipetted, 20 mL of water was added, and mixed evenly to prepare diluted hydrochloric acid solution A (pH-1.5). About” for “About”, “diluted hydrochloric acid solution A,” for “ultrapure water (pH-6),”, “for 1 hour” for “overnight”
The standard sample and the sample to be tested were analyzed by Shimadzu LCMS-2020, where chromatographic column was Skim-psck GIST 5 µm C18 2.1*[…]; mobile phase A was water and mobile phase B was methanol; and flow rate was 0.3 mL/min. The gradient of B was as the following: 0 min: 10%; 0-1.0 min: 10%; 1.0-2.5 min: 95%; 3.0-4.0 min: 95%; 4.0-4.1 min: 10%; 4.1-6.0 min: 10%.
The relationship between the concentration and peak area of the standard sample was ploted into a standard curve, and the concentration of the sample to be tested was calibrated using this standard curve. Compound solubility = concentration of the sample to be tested × 10 [formula]

TYK2, sequence (P29597 whole entry): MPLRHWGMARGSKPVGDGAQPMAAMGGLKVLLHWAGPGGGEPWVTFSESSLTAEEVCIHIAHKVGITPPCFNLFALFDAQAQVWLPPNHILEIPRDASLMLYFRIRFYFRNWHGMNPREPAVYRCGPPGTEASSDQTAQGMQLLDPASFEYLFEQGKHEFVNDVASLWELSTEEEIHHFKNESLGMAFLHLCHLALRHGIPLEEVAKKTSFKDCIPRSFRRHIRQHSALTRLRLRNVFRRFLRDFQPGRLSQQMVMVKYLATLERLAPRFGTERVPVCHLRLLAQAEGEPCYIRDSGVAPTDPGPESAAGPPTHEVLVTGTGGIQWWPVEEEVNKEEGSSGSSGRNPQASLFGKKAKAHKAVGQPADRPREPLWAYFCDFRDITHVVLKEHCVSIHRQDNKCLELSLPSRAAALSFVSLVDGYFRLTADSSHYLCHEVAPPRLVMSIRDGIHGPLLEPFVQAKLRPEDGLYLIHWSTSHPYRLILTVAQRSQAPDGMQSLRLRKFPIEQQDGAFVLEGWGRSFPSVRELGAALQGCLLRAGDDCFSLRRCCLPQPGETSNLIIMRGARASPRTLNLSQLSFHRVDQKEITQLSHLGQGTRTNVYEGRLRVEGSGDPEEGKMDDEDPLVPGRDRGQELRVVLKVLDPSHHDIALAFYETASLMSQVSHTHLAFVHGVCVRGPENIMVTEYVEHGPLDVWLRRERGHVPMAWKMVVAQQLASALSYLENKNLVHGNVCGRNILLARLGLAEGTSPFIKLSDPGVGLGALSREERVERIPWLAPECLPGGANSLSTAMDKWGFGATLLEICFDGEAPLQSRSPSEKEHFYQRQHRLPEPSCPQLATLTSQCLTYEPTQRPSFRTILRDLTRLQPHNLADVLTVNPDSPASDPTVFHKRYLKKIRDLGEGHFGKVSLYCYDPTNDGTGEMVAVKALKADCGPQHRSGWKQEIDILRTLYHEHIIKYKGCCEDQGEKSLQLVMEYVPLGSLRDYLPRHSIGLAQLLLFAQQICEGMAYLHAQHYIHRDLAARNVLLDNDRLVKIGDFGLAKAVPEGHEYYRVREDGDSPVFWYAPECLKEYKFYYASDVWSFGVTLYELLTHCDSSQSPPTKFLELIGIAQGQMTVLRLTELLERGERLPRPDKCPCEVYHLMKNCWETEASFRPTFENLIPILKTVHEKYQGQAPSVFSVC
T2 sequence (Q62120 whole entry): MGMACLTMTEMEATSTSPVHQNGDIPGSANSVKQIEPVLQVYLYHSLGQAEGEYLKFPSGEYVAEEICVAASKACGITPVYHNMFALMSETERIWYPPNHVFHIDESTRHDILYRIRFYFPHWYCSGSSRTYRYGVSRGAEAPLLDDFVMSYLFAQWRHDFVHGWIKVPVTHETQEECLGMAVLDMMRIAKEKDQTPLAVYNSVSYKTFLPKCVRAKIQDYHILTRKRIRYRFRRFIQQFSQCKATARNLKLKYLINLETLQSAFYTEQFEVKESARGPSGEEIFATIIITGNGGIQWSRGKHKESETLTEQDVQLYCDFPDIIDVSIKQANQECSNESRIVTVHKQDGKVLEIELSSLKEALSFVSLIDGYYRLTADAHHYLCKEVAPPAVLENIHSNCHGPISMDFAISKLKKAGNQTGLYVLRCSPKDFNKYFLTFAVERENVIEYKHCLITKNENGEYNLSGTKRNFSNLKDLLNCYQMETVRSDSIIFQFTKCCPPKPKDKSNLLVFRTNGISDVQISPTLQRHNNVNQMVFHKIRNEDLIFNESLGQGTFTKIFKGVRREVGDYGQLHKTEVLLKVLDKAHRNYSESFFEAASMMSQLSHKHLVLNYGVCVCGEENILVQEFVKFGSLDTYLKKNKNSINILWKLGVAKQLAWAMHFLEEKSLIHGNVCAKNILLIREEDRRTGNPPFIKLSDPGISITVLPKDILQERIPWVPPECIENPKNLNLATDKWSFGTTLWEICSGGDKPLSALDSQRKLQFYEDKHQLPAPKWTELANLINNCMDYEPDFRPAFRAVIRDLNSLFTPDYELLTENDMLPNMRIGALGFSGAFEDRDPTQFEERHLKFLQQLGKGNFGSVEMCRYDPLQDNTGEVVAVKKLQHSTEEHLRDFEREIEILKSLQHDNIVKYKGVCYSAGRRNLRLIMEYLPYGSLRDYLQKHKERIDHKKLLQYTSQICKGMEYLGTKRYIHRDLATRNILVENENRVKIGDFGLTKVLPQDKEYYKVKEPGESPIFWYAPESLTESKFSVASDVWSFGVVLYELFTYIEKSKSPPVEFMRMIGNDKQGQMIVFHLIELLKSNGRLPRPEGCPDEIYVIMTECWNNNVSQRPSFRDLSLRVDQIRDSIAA
EGFR (T790M), sequence (P00533 25-1210 T790M): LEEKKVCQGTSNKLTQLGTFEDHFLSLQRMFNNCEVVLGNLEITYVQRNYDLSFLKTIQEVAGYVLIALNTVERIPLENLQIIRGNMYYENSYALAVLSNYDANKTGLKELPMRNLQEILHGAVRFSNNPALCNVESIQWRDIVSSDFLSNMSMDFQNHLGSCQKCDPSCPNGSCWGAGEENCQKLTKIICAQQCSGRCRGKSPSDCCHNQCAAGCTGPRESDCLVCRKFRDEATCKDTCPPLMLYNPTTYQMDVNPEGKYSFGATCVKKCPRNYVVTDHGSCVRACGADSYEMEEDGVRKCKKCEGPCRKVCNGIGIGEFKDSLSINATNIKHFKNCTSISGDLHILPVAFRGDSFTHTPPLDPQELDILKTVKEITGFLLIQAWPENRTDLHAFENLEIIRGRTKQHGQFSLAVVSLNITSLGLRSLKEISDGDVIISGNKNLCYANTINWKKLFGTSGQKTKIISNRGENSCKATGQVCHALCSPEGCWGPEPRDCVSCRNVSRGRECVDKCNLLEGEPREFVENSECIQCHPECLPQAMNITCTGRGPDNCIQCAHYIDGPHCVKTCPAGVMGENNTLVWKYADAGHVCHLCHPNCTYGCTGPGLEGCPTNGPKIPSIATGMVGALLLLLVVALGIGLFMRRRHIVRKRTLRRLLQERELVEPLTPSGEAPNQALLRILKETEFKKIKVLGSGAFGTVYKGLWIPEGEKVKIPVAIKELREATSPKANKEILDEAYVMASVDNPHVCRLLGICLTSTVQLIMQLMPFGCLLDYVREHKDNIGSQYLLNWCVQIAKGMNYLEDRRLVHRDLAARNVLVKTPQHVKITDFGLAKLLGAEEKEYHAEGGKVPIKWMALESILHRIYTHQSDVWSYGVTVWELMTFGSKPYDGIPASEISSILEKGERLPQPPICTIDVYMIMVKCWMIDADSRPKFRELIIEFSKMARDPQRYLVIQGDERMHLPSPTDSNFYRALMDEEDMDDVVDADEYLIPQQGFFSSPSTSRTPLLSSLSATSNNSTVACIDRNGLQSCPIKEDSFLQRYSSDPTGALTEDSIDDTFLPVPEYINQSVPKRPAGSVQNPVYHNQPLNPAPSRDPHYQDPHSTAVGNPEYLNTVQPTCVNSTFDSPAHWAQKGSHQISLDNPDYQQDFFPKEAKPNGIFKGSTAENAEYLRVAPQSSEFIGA
Wild-type EGFR kinase protein, sequence (P00533 25-1210): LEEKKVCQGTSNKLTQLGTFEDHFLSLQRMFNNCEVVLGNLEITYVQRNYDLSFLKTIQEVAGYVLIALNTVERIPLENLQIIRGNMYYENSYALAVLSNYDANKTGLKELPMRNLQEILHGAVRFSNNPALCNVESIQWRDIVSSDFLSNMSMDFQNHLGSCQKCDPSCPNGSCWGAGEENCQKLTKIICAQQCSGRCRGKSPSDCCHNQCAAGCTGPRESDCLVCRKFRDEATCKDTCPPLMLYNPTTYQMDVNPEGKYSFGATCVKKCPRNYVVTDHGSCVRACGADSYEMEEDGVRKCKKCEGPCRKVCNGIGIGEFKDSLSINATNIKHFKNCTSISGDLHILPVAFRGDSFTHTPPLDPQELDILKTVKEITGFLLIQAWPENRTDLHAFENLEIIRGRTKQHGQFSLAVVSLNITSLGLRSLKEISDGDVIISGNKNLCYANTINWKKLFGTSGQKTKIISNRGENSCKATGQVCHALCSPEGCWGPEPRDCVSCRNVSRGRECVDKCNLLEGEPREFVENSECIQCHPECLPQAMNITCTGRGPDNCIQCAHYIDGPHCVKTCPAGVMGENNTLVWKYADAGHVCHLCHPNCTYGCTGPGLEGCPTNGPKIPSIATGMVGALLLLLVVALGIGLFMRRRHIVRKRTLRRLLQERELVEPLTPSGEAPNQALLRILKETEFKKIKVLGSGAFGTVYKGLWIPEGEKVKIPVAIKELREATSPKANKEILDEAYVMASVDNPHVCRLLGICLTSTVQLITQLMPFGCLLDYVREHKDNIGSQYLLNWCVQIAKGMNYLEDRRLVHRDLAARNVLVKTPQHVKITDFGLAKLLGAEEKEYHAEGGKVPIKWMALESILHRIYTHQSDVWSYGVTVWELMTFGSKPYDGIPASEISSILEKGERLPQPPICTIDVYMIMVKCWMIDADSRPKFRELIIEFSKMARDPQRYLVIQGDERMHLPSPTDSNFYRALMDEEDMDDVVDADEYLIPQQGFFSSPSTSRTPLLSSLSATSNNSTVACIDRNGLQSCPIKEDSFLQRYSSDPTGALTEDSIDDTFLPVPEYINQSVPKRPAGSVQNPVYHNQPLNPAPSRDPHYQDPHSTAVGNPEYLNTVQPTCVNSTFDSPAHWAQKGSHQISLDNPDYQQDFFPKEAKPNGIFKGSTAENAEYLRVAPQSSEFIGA

SMILES | inhibition at 0.01 µM (EGFR (T790M)) [%] | IC50 [1] [nM] | inhibition at 0.01 µM (JAK3 [2]; at 10 nM, read-out: inhibition rate JAK3) [%] | inhibition at 0.1 µM (JAK3 [2]; at 100 nM, read-out: inhibition rate JAK3) [%] | IC50 (JAK3 [2]) [nM] | EC50 (JAK2) [nM] | inhibition at 0.01 µM (TYK2) [%] | inhibition at 0.1 µM (TYK2) [%] | EC50 (JAK3 [3]) [nM] | solubility at 1 h ([4]; simulated gastric fluid, diluted hydrochloric acid solution A (pH-1.5), room temperature, 1 hour) [µg/mL] | solubility ([4]; ultrapure water (pH-6), room temperature overnight) [µg/mL]
C=CC(=O)Nc1cccc(Nc2nc(Nc3ccc4c(c3)OCCN(C)CCOCCO4)ncc2Cl)c1 [Example 56, N-(3-((5-chloro-2-((7-methyl-2,3,6,7,8,9-hexahydro-5H-benzo[b][1,4,7]trioxa[10]azacyclododecan-12-yl)amino)pyrimidin-4-yl)amino)phenyl)acrylamide] | > 80 | < 50 | – | – | – | – | – | – | – | – | –
CN1CCOc2ccc(Nc3nc(-c4cnn(C(CC#N)C5CCCC5)c4)c4cc[nH]c4n3)cc2OCC1 (centres unmarked) [Example 27] | – | – | 40 to 79 | > 80 | < 50 | 50 to 500 | 40 to 79 | > 80 | – | – | –
CCS(=O)(=O)N1CC(CC#N)(n2cc(-c3nc(Nc4ccc5c(c4)OCCN(C)CCO5)nc4[nH]ccc34)cn2)C1 [Example 28] | – | – | – | – | < 50 | 50 to 500 | > 80 | > 80 | – | – | –
C=CC(=O)Nc1cccc(Nc2nc(Nc3ccc4c(c3)OCCOCCN(C)CCO4)ncc2Cl)c1 [Example 54, N-(3-((5-chloro-2-((7-methyl-2,3,6,7,8,9-hexahydro-5H-benzo[b][1,4,7]trioxa[10]azacyclododecan-13-yl)amino)pyrimidin-4-yl)amino)phenyl)acrylamide] | > 80 | < 50 | – | – | – | – | – | – | 50 to 500 | > 3730 | 886 (≈ 1690 µM)
